Earlier results, collected in US20150374878A1, “[…] FOR WOUND CARE” (AKESO BIOMEDICAL, INC., priority 2014, published 2015).

Conditions: see U.S. Pat. No. 5,858,365 to Faller

Structure (SMILES): CCCC(=O)O [butyric acid]
- half-life in serum: about 2 minutes
